Experimental data published in patent US20250002452A1, “BICYCLOPENTANE DERIVATIVES” (ICAGEN, LLC, priority 2022, published 2025).

These compounds were tested against human Kv7.2 (Homo sapiens (Human), UniProt O43526) (assay: SyncroPatch 384 electrophysiology, activation of Kv7.2 in CHO cells). Conditions: Kv7.2 activation max %, relative to 30 μM ML-213 max activation.
Type: cell-based
Description: The potency of Kv7 uotentiators was determined using the SyncroPatch 384 (Nanion) high throughput electrophysiology platform.
CHO cells stably expressing either human Kv7.2, Kv7.4 or Kv7.5/7.3 under a constitutive CMV promoter were used for these studies. Cells were maintained in F12 Hams+1 mM L-glutamine (Hyclone) supplemented with 10% FBS (Sigma), 0.3× NEAA (Non-essential Gamino-acids) and 400ug/ml G418 at 37° C. in 5% CO2. Cells were cultured in T-225 flasks (Nunc) for 2-3 days to reach 85-95% confluence prior to electrophysiological recording.
Earle's balanced salt solution (in mM): 135 NaCl, 5.4 KCl, 5 Glucose, 2 CaCl2), 1 MgCl2, 5 HEPES, pH 7.4. Seal enhancer solution (in mM): 90 NaCl, 3 KCl, 35 CaCl2), 10 MgCl2, 10 HEPES, pH 7.4. Extracellular recording solution (in mM): 71 NaCl, 70 NMDG, 13 KCl, 5 Glucose, 2 CaCl2), 1 MgCl2, 10 HEPES, pH 7.4. Intracellular recording solution (in mM): 130 KF, 20 KCl, 4 EGTA, 10 HEPES, 2 EDTA, 0.01 Escin, pH 7.2.
Cells were harvested for electrophysiological recording upon reaching appropriate confluence. Cells were first washed in DPBS (Hyclone, Cat #SH30028.03) and then 2 ml of Accutase (MP Biomedicals #1000449) was added at 28° C. until ˜90% of cells were suspended. F12 HAM's media+1 mM L-glutamine (Hyclone, SH30026.02) was then added to the flask to dilute the accutase. Cells were then triturated until a single cell suspension was achieved, a cell count was performed, and cells were centrifuged for 2 min. at 1,000 rpm. Media was then aspirated, and cells were resuspended in Earle's balanced salt solution to a concentration of 0.75×10^6 cells/ml and allowed to recover for 25 min at 10° C.
At the beginning of each assay, 20 μl of cell suspension was dispensed into each well of a multi-hole 384-well SyncroPatch chip by the onboard pipettor. Cell sealing was initiated, and seal enhancer solution was added to facilitate seal formation. Upon completion of sealing, cells were washed 3 times with extracellular recording solution and the assay voltage protocol was started. Human Kv7.2, Kv7.4 or Kv7.5/7.3 channels were evaluated using a voltage protocol in which cells were voltage-clamped at a holding potential of −60 mV. Potassium currents were continuously activated with a series of three voltage steps to −30 mV for 3 seconds, 40 mV for 1 second and −90 mV for 4 seconds with 12 seconds between successive voltage sweeps. Potassium currents were measured from the −90 mV repolarizing step. Baseline current was assessed for 3.5 minutes prior to the addition of 5.6 μM zinc pyrithione (1μM for Kv7.4). Kv7.2, Kv7.4 or Kv7.5/7.3 current in the presence of zinc pyrithione was acquired over five minutes to allow channels to reach steady state activity prior to addition of test agents. Channel activity was monitored for three minutes preceding the addition of 30 μM ML-213 (3 minutes) to achieve maximum activation. 150 mM TEA with 10 μM XE-991 was applied for 2 minutes to measure the leak current during maximum inhibition of Kv7.2, Kv7.4 or Kv7.5/7.3 channels.
Example 61 Data Analysis Data were collected on the SyncroPatch platform using PatchControl software (Nanion) and processed and analyzed using DataControl Software (Nanion). Percent activation was calculated from potassium current as follows: The average current for the 5 sweeps in the presence of zinc pyrithione immediately preceding test agent addition was taken as the ‘control’ data. Likewise, the average potassium current in the presence of test agents 5 sweeps immediately preceding addition of 30 μM ML-213 was determined for ‘drug’ data. The average potassium current 5 sweeps immediately prior to addition of 150 mM TEA+10 μM XE-991 was determined for ‘max activation’ data while average currents from 5 sweeps immediately following addition of TEA was determined for ‘max inhibition’ data. […]

Row | Compound | Kv7.2 max [%]
1 | O=C(N[C@@H](CO)c1cccc(Br)c1)NC12CC(F)(C1)C2 [Example 17, 1-[(1R)-1-(3-bromophenyl)-2-hydroxyethyl]-3-(3-fluoro-1-bicyclo[1.1.1]pentanyl)urea] | 69
2 | O=C(N[C@@H](CO)c1cccc(OC(F)(F)F)c1)NC12CC(C(F)(F)F)(C1)C2 [Example 55, 1-[(1R)-2-hydroxy-1-[3-(trifluoromethoxy)phenyl]ethyl]-3-[3-(trifluoromethyl)-1-bicyclo[1.1.1]pentanyl]urea] | 77
3 | O=C(NCc1cccc(OCF)c1)NC12CC(C(F)(F)F)(C1)C2 [Example 34, 1-[[3-(fluoromethoxy)phenyl]methyl]-3-[3-(trifluoromethyl)-1-bicyclo[1.1.1]pentanyl]urea] | 56
4 | N#Cc1cccc(CNC(=O)NC23CC(C(F)(F)F)(C2)C3)c1F [Example 47, 1-[(3-cyano-2-fluorophenyl)methyl]-3-[3-(trifluoromethyl)-1-bicyclo[1.1.1]pentanyl]urea] | 40
5 | O=C(NCc1cccc(C(F)(F)F)c1)NC12CC(C(F)(F)F)(C1)C2 [Example 7, 1-[3-(trifluoromethyl)-1-bicyclo[1.1.1]pentanyl]-3-[[3-(trifluoromethyl)phenyl]methyl]urea] | 75
6 | O=C(N[C@@H](CO)c1cccc(C(F)(F)F)c1)NC12CC(C(F)(F)F)(C1)C2 [Example 48, 1-[(1R)-2-hydroxy-1-[3-(trifluoromethyl)phenyl]ethyl]-3-[3-(trifluoromethyl)-1-bicyclo[1.1.1]pentanyl]urea] | 78
7 | C[C@H](NC(=O)NC12CC(F)(C1)C2)c1cccc(F)c1 [Example 24, 1-(3-fluoro-1-bicyclo[1.1.1]pentanyl)-3-[(1S)-1-(3-fluorophenyl)ethyl]urea] | 51
8 | O=C(NCc1cccc(Cl)c1)NC12CC(C1)C2 [Example 41, 1-(1-bicyclo[1.1.1]pentanyl)-3-[(3-chlorophenyl)methyl]urea] | 49
9 | O=C(NCc1cccc(OC(F)F)c1)NC12CC(C1)C2 [Example 43, 1-(1-bicyclo[1.1.1]pentanyl)-3-[[3-(difluoromethoxy)phenyl]methyl]urea] | 78
10 | O=C(NCc1ccc(F)c(OC(F)F)c1)NC12CC(C(F)(F)F)(C1)C2 [Example 56, 1-[[3-(difluoromethoxy)-4-fluorophenyl]methyl]-3-[3-(trifluoromethyl)-1-bicyclo[1.1.1]pentanyl]urea] | 44

Second part, the compound after the results:

Row | Kv7.2 max [%] | Compound
11 | 58 | C[C@H](NC(=O)NC12CC(C)(C1)C2)c1cccc(OC(F)(F)F)c1 [Example 26, 1-(3-methyl-1-bicyclo[1.1.1]pentanyl)-3-[(1S)-1-[3-(trifluoromethoxy)phenyl]ethyl]urea]
12 | 65 | O=C(NCc1cccc(C2COC2)c1)NC12CC(C(F)(F)F)(C1)C2 [Example 30, 1-[[3-(oxetan-3-yl)phenyl]methyl]-3-[3-(trifluoromethyl)-1-bicyclo[1.1.1]pentanyl]urea]
13 | 47 | C[C@H](NC(=O)NC12CC(F)(C1)C2)c1cccc(Cl)c1 [Example 18, 1-[(1S)-1-(3-chlorophenyl)ethyl]-3-(3-fluoro-1-bicyclo[1.1.1]pentanyl)urea]
14 | 42 | [2H]C([2H])(NC(=O)NC12CC(C(F)(F)F)(C1)C2)c1cccc(C#N)c1 [Example 52, 1-[(3-cyanophenyl)-dideuteriomethyl]-3-[3-(trifluoromethyl)-1-bicyclo[1.1.1]pentanyl]urea]
15 | 71 | O=C(NCc1cccc(C=C(F)F)c1)NC12CC(F)(C1)C2 [Example 45, 1-[[3-(2,2-difluoroethenyl)phenyl]methyl]-3-(3-fluoro-1-bicyclo[1.1.1]pentanyl)urea]
16 | 74 | O=C(NCc1cccc(C(F)(F)F)c1)NC12CC(C(F)F)(C1)C2 [Example 22, 1-[3-(difluoromethyl)-1-bicyclo[1.1.1]pentanyl]-3-[[3-(trifluoromethyl)phenyl]methyl]urea]
17 | 45 | O=C(NCc1cccc(OC(F)(F)F)c1F)NC12CC(C(F)(F)F)(C1)C2 [Example 57, 1-[[3-(trifluoromethoxy)-2-fluorophenyl]methyl]-3-[3-(trifluoromethyl)-1-bicyclo[1.1.1]pentanyl]urea]
18 | 48 | N#Cc1cccc(CNC(=O)NC23CC(F)(C2)C3)c1 [Example 13, 1-[(3-cyanophenyl)methyl]-3-(3-fluoro-1-bicyclo[1.1.1]pentanyl)urea]
19 | 55 | O=C(NCc1cccc(Br)c1)NC12CC(C(F)(F)F)(C1)C2 [Example 36, 1-[(3-bromophenyl)methyl]-3-[3-(trifluoromethyl)-1-bicyclo[1.1.1]pentanyl]urea]
20 | 69 | O=C(N[C@@H](CO)c1cccc(Br)c1)NC12CC(C(F)(F)F)(C1)C2 [Example 12, 1-[(1R)-1-(3-bromophenyl)-2-hydroxyethyl]-3-[3-(trifluoromethyl)-1-bicyclo[1.1.1]pentanyl]urea]
21 | 40 | C[C@H](NC(=O)NC12CC(F)(C1)C2)c1cccc(OC(F)(F)F)c1 [Example 10, 1-(3-fluoro-1-bicyclo[1.1.1]pentanyl)-3-[(1S)-1-[3-(trifluoromethoxy)phenyl]ethyl]urea]
22 | 51 | C[C@H](NC(=O)NC12CC(F)(C1)C2)c1cccc(C(F)(F)F)c1 [Example 9, 1-(3-fluoro-1-bicyclo[1.1.1]pentanyl)-3-[(1S)-1-[3-(trifluoromethyl)phenyl]ethyl]urea]
23 | 57 | COc1cccc([C@H](C)NC(=O)NC23CC(F)(C2)C3)c1 [Example 8, 1-(3-fluoro-1-bicyclo[1.1.1]pentanyl)-3-[(1S)-1-(3-methoxyphenyl)ethyl]urea]
24 | 72 | O=C(NCc1cccc(SC(F)(F)F)c1)NC12CC(F)(C1)C2 [Example 50, 1-(3-fluoro-1-bicyclo[1.1.1]pentanyl)-3-[[3-(trifluoromethylsulfanyl)phenyl]methyl]urea]
25 | 76 | O=C(NCc1cccc(OC(F)(F)F)c1)NC12CC(F)(C1)C2 [Example 6, 1-(3-fluoro-1-bicyclo[1.1.1]pentanyl)-3-[[3-(trifluoromethoxy)phenyl]methyl]urea]
26 | 58 | O=C(NCc1ccc2c(c1)OC(F)(F)O2)NC12CC(C(F)(F)F)(C1)C2 [Example 33, 1-[(2,2-difluoro-1,3-benzodioxol-5-yl)methyl]-3-[3-(trifluoromethyl)-1-bicyclo[1.1.1]pentanyl]urea]
